We go through two molecules from article PMC5286426, “The Calcium-Dependent Switch Helix of L-Plastin Regulates Actin Bundling” (Scientific Reports, 2017).

Series [1] deals with T1, Ca^2+-bound EF (EF domain of LPL) (Homo sapiens, UniProt P13796).
T1 construct: His-tag (with TEV protease cleavage site) (N, cleaved yes); made in house; host or cells: E. coli BL21 (DE3)
T1 sequence (P13796 1-82 limits assumed): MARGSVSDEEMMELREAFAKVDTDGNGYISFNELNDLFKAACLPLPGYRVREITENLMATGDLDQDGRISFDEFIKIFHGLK
The series is described as follows: Surface plasmon resonance (SPR), peptides binding to immobilized EF. As for the experimental part:
The binding between Ca^2+-bound LPL-EF and a synthetic peptide corresponding to H5 (Ac-[…]-NH2) was evaluated by SPR using a BIAcore X100 instrument (GE Healthcare) and was compared to other peptides including the cytotoxic peptide melittin, and the CaM-target CaMKI and smMLCK peptides. Peptides used here were purchased as synthetic peptides with >95% purity from Genscript (San Diego, CA). The EF construct was immobilized via its sole cysteine residue (Cys42) onto a CM5 sensor chip (GE Healthcare) using thiol-coupling. The running buffer contained 10 mM Tris-HCl pH 7.5, 150 mM KCl, 1 mM CaCl2, and 0.005% (v/v) Tween-20. Different concentrations of the peptide sample were injected at a flow rate of 30 μL/min with a contact time of 1 min at 25 °C. The BIAevaluation software 2.0 (GE Healthcare) was used to process the SPR sensorgrams and for curve-fitting to obtain the dissociation constants (Kd’s). Two different concentrations in each experiment were injected twice to obtain the fitting errors (SEM).
SPR measurements for the interactions between EF and various peptides. The affinity fittings […]
The response units at 4 seconds after starting the injection were used for CaMKIp due to the nonspecific binding seen later during the injection, while the response units at 4 seconds before stopping the injection were used for the […]
(1 picture or pasted object on this page, not shown here)
(In general: In SPR one partner is held on a chip, and binding of the other changes the refractive index at the surface.)

The next series has as its system normal cells. Conditions: in words; no ref at the sentence; cited from earlier work. An excerpt:
Development of metastasis provides the most serious challenge for cancer treatment and is responsible for most cancer related deaths. A number of recent studies have shown that ectopically expressed LPL is largely responsible for this process. Therefore, LPL presents itself as a promising target for drug development to prevent the metastatic activity of the cancer cells. It is also well known that inhibition of fascin, another actin-bundling protein, is a viable approach to block tumor metastasis.

The next series concerns ^15N-labeled EF. The series is described as follows: HSQC NMR titration of ^15N-labeled EF with peptide. Format: binding, human. Conditions: H5 peptide added to ^15N-labeled EF (Supplementary Fig. S8). As for the experimental part: The calcium-free samples of EF-H5, EF-H5-S5E, and EF contained 0.5–1.0 mM ^15N- or ^13C,^15N-labeled protein, 100 mM KCl, 20 mM Bis-Tris (pH 6.8), 1 mM EDTA, 0.03% NaN3, 10 mM ^2H-labelled dithiothreitol (^2H-DTT), and 0.5 mM 2,2-dimethyl-2- silapentane-5-sulfonate (DSS) in 99.99% D2O or 10% D2O/90% H2O. The calcium free non-labeled LPL-EF was also prepared in 99.99% D2O with the same buffer components. The calcium-bound form of those constructs were prepared in buffer containing ~1 mM ^15N- or ^13C,^15N-labelled protein, 100 mM KCl, 20 mM Bis-Tris (pH 6.8), 5 mM CaCl2, 0.03% NaN3, 0.5 mM DSS, and 10 mM ^2H-DTT in 99.99% D2O or 10% D2O/90% H2O. The calcium-bound non-labeled LPL-EF-H5 was also prepared in 99.99% D2O with the same buffer ingredients. DSS was used as a reference to obtain ^1H, ^15N and ^13C chemical shifts. All NMR spectra were processed with NMRPipe[71] and analyzed using NMRView[72].
All NMR experiments were performed with a Bruker Avance 700 or 600 MHz spectrometer at 25 °C. […] All NOESY experiments including three-dimensional ^15N-edited NOESY-HSQC and ^13C-edited NOESY-HSQC, and two-dimensional NOESY were measured with a mixing time of 120 ms. {^1H}-^15N heteronuclear NOE data were obtained using a 5 sec train of 120° proton pulses.

Series [2] deals with ^15N-labeled ABD2 (residues 384–627). As to the kind of experiment: NMR titration of ^15N-labeled ABD2 with peptide. Conditions: synthetic H5 peptide titrated into ^15N-labeled ABD2 (Supplementary Fig. S5b). Format: binding, human.
The mark [3] stands for this setting: EF immobilized via Cys42 on CM5 chip, 10 mM Tris-HCl pH 7.5, 150 mM KCl, 1 mM CaCl2, 0.005% Tween-20, 25 °C, response at 4 seconds before stopping the injection, fitting error SEM, read-out: KD.

Entries after “also recorded” stand apart in the source; their conditions may differ. Where two headings read alike, the source gives them in different places.

As usually defined, the Kd is a measure of binding affinity in units of concentration. With `CC[C@H](C)[C@H](NC(=O)CN)C(=O)NCC(=O)N[C@@H](C)C(=O)N[C@H](C(=O)N[C@@H](CC(C)C)C(=O)N[C@@H](CCCCN)C(=O)N[C@H](C(=O)N[C@@H](CC(C)C)C(=O)N[C@H](C(=O)N[C@H](C(=O)NCC(=O)N[C@@H](CC(C)C)C(=O)N1CCC[C@H]1C(=O)N[C@@H](C)C(=O)N[C@@H](CC(C)C)C(=O)N[C@H](C(=O)N[C@@H](CO)C(=O)N[C@@H](Cc1c[nH]c2ccccc12)C(=O)N[C@H](C(=O)N[C@@H](CCCCN)C(=O)N[C@@H](CCCNC(=N)N)C(=O)N[C@@H](CCCCN)C(=O)N[C@@H](CCCNC(=N)N)C(=O)N[C@@H](CCC(N)=O)C(=O)N[C@@H](CCC(N)=O)C(N)=O)[C@@H](C)CC)[C@@H](C)CC)[C@@H](C)O)[C@@H](C)O)C(C)C)C(C)C` [Melittin, reference compound], the Kd in series [1] (setting [3]) was 158 nM. Further, the Hemolysis and toxicity entry in the series on normal cells is on record as “strong hemolytic peptide that is toxic to all normal cells”.
As for Ac-STDVAKTFRKAINKKEGI-NH2 [H5p], the dissociation constant Kd in series [1] (Ca^2+-bound EF, SPR, pH 7.5, 25 °C, read-out: Kd of H5 peptide for Ca^2+-bound EF (order of magnitude, discussion)) was 1000 nM; in series [1] (setting [3]), 3520 nM. In addition, in the series with ^15N-labeled EF, the “HSQC spectral effect of H5 peptide on ^15N-labeled EF” value was “intermediate exchange and resultant line broadening; also recorded: did not produce the same spectrum as EF-H5”. Further, the “Interaction with ABD2 (chemical shift changes)” value in series [2] is given as “no chemical shift changes were observed, indicating no interaction”.
